In patent US11053207B2, “Indoleamine-2,3-dioxygenase inhibitor and preparation method therefor” (SHANGHAI INSTITUTE OF ORGANIC CHEMISTRY, CHINESE ACADEMY OF …, priority 2014, dated 2021):

Tests used:
[1] = target: IDO enzyme (Homo sapiens (Human), UniProt P14902); assay: IDO enzyme inhibitory activity; format: biochemical; conditions: OD321 nm, 60 min
Experimental: Firstly, the IDO gene was amplified by PCR, the PCR amplification products were recovered, and then the pET28a plasmid (purchased from Shanghai Baoman Biotechnology Co., Ltd.) and the IDO gel recovery products were digested with EcoR I and Xho I restriction endonucleases (37° C., digestion for 2 h), electrophorized and recovered. The recovered products were ligated overnight by a T4 ligase and then the ligation products were added to DH5α competent cells, placed on ice for 30 min, heat-shocked at 42° C. for 90 s, cultured on a shaker, and seeded to a plate. Monoclonies were picked, identified by PCR and then by sequencing.
The constructed BL21 containing the pET28a-IDO plasmid was cultured at 37° C. to OD600=0.6-0.8, and a final concentration of 7 μM of chlorine methemoglobin and 1 mM of IPTG (isopropyl-β-D-thiogalactoside) were added for induction at 28° C. for 4 h; after the induction, the cell was centrifuged at 6000 rpm at 4° C., the collected cells were washed once with 20 mM PBS (pH6.5), and centrifuged and collected again.
The collected cells were resuspended with a lysis solution (20 mM PBS pH 6.5), ultrasonically lysed (40% of power, lysis for 20 min, placed on ice), the lysed bacteria were centrifuged at 13000 rpm for 15 min, precipitate was discarded and the supernatant was maintained; the nickel column was equilibrated with the lysis solution (20 mM PBS pH 6.5) for 3 column volumes, and then the lysis supernatant was loaded onto the nickel column; after loading, four column volumes of a rinsing solution (20 mM PBS pH 6.5, 20 mM imidazole) were used for washing, and finally protein was eluted with eluent (20 mM PBS pH 6.5, 250 mM imidazole); the eluted protein solution was dialyzed for 4 h, and the dialysis solution was 20 mM PBS, pH 6.5. After the dialysis, the protein sample was concentrated, packed, flash frozen by liquid nitrogen, and stored at −80° C. for further use.
Firstly, the compound was subject to a 3-fold gradient dilution. 1 μL of each concentration was added to a 96-well plate; 50 μL of the IDO enzyme solution (final concentration 600 ng/100μL) was added: 25 μL of substrate 1 mixture solution was added, 25 μL of substrate 2 mixture solution was added to initiate the reaction. Finally, the plate was read at OD321 nm, 60 min.

[2] = system: Hela cells; assay: Test for cell activity (Hela cells, interferon γ, kynurenine read at 480 nm); format: cell-based; conditions: human interferon γ 50 ng/mL, 48 h
Experimental: Hela cells (100 μL) were inoculated on a 96-well plate at an inoculation amount of 5×10^3 per well and grown overnight. The next day, after the compound was diluted, 1 μL was added to a 96-well plate and then 100 μL of medium containing human interferon y (final concentration of 50 ng/mL) was added to the 96-well plate to allow the final volume to be 200 μL. 48 h after incubating, 140 μL of supernatant in each well was transferred to a new 96-well plate. 10 μL of 6.1 N trichloroacetic acid was added to each well and mixed and incubated at 50° C. for 30 min, IDO catalyzed N-formyl canine urea to become canine urea. The reaction mixture was centrifuged at 2500 rpm for 10 minutes to remove the precipitate. 100 μL of supernatant in each well was transferred to a new 96-well plate and mixed with 100 μL of 2% dimethylaminobenzaldehyde acetic acid solution. After the canine urea was separated, the value was measured at 480 nm using a SPECTRAmax i3 reader.

Chain of IDO enzyme (P14902 whole entry): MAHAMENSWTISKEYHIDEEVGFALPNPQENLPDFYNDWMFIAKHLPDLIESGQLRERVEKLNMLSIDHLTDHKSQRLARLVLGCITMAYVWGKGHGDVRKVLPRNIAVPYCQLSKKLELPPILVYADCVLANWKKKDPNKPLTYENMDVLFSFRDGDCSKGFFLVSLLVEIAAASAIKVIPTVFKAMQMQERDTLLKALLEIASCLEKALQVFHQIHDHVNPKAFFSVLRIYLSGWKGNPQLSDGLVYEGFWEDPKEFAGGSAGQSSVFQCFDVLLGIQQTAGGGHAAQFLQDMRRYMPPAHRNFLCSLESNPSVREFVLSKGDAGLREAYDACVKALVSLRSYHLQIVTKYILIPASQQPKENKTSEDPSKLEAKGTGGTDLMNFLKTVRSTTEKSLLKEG

Structure (SMILES) | IC50 [1] [nM] | IC50 [2] [nM]
CS(=N)(=O)CCNc1nonc1/C(=N/O)Nc1ccc(F)c(Br)c1 (racemic) [compound 1, (±) (Z)—N-(3-bromo-4-fluorophenyl)-N′-hydroxy-4-((2-(thio-methylsulfoxideimine)ethyl)amino)-1,2,5-oxadiazole-3-carboxamidine] | 22 | 40
CS(=N)(=O)CCCNc1nonc1/C(=N/O)Nc1ccc(F)c(Br)c1 (racemic) [compound 2, (±)(Z)—N-(3-bromo-4-fluorophenyl)-N′-hydroxy-4-((3-(thio-methylsulfoxideimine)propyl)amino)-1,2,5-oxadiazole-3-carboxamidine] | < 3000 | < 100
CS(=N)(=O)CCCCNc1nonc1/C(=N/O)Nc1ccc(F)c(Br)c1 (racemic) [compound 3, (±)(Z)—N-(3-bromo-4-fluorophenyl)-N′-hydroxy-4-((4-(thio-methylsulfoxideimine)butyl)amino)-1,2,5-oxadiazole-3-carboxamidine] | 74 | 8
CS(=N)(=O)CCCCNc1nonc1/C(=N/O)Nc1ccc(F)c(C(F)(F)F)c1 (racemic) [compound 4, (±)(Z)—N-(4-fluoro-3-(trifluoromethyl)phenyl)-N′-hydroxy-4-((4-(thio-methylsulfoxideimine)butyl)amino)-1,2,5-oxadiazole-3-carboxamidine] | < 19000 | < 500
CS(=N)(=O)CCCCNc1nonc1/C(=N/O)Nc1cccc(C(F)(F)F)c1 (racemic) [compound 5, (±)(Z)—N′-hydroxy-4-((4-(thio-methylsulfoxideimine)butyl)amino)-N-(3-(trifluoromethyl)phenyl)-1,2,5-oxadiazole-3-carboxamidine] | < 3600 | < 76
N=S(=O)(CCNc1nonc1/C(=N/O)Nc1ccc(F)c(Br)c1)c1ccccc1 (racemic) [compound 7, (±) (Z)—N-(3-bromo-4-fluorophenyl)-N′-hydroxy-4-((2-(thio-phenylsulfoxideimine)ethyl)amino)-1,2,5-oxadiazole-3-carboxamidine] | < 2600 | < 260
CS(=N)(=O)CCCNc1nonc1/C(=N/O)Nc1cccc(S(F)(F)(F)(F)F)c1 (racemic) [compound 8] | < 14000 | < 800
CS(=O)(CCCNc1nonc1/C(=N/O)Nc1ccc(F)c(Br)c1)=NC#N (racemic) [compound 9, (±) (Z)—N-(3-bromo-4-fluorophenyl)-N′-hydroxy-4-((3-(thio-methylsulfoxidecyanoamine)propyl)amino)-1,2,5-oxadiazole-3-carboxamidine] | 35 | 4.7
CS(=O)(CCCNc1nonc1/C(=N/O)Nc1ccc(F)c(Cl)c1)=NC#N (racemic) [compound 10, (±) (Z)—N-(3-chloro-4-fluorophenyl)-N′-hydroxy-4-((3-(thio-methylsulfoxidecyanoamine)propyl)amino)-1,2,5-oxadiazole-3-carboxamidine] | < 5000 | 2.8
CS(=O)(CCCCNc1nonc1/C(=N/O)Nc1ccc(F)c(Br)c1)=NC#N (racemic) [compound 11, (±) (Z)—N-(3-bromo-4-fluorophenyl)-N′-hydroxy-4-((4-(thio-methylsulfoxidecyanoamine)butyl)amino)-1,2,5-oxadiazole-3-carboxamidine] | 55 | 7.6
CS(=O)(CCCCNc1nonc1/C(=N/O)Nc1ccc(F)c(Cl)c1)=NC#N (racemic) [compound 12, (±)(Z)—N-(3-chloro-4-fluorophenyl)-N′-hydroxy-4-((4-(thio-methylsulfoxidecyanoamine)butyl)amino)-1,2,5-oxadiazole-3-carboxamidine] | < 18000 | 2.8
CCC(C)(C)C(=O)O/N=C(\Nc1ccc(F)c(Br)c1)c1nonc1NCCS(C)(=O)=NC#N (racemic) [compound 13, (±) (Z)—N-(3-bromo-4-fluorophenyl)-N′-hydroxy(thio-methylsulfoxidecyanoamine)ethyl)amino)-1,2,5-oxadiazole-3-(2,2-dimethyl) butyrate] | 180 | 14
CC(C)C(=O)O/N=C(\Nc1ccc(F)c(Br)c1)c1nonc1NCCS(C)(=O)=NC#N (racemic) [compound 14, (±)(Z)—N-(3-Br-4-fluorophenyl)-N′-hydroxy-4-((2-(thio-methylsulfoxidecyanoamine)ethyl)amino)-1,2,5-oxadiazole-3-isobutyrate] | 120 | 2.2
CC(C)(C)C(=O)O/N=C(\Nc1ccc(F)c(Br)c1)c1nonc1NCCS(C)(=O)=NC#N (racemic) [compound 15, (±)(Z)—N-(3-bromo-4-fluorophenyl)-N′-hydroxy-4-((2-(thio-methylsulfoxidecyanoamine)ethyl)amino)-1,2,5-oxadiazole-3-trimethyl acetate] | 360 | 47
CS(=O)(CCNc1nonc1/C(=N/O)Nc1ccc(F)c(Br)c1)=NC#N (single isomer, unassigned) [compound 6A] | < 88 | 0.3
CS(=O)(CCNc1nonc1/C(=N/O)Nc1ccc(F)c(Br)c1)=NC#N (single isomer, unassigned) [compound 6B] | < 82 | 0.6
c1ccc(-c2cnc[nH]2)cc1 [5-phenyl-1-imidazole, reference compound] | – | > 50000
C[S@@](=N)(=O)CCNc1nonc1/C(=N/O)Nc1ccc(F)c(Br)c1 [compound 1A] | < 5600 | < 70
C[S@](=N)(=O)CCNc1nonc1/C(=N/O)Nc1ccc(F)c(Br)c1 [compound 1B] | < 5200 | < 80
